Measurements published in patent publication US20230338363A1, “COMBINATION CHEMO-IMMUNOTHERAPY FOR PANCREATIC CANCER USING THE IMMUNOGENIC EFFECTS OF AN IRINOTECAN SILICASOME NANOCARRIER PLUS ANTI-PD-1” (The Regents of the University of California, priority 2020, published 2023).
Structures can show the parent of a compound that is named as a salt.

Columns and labels:
KPC tumor = assay: Vaccination experiment with dying chemo-treated KPC cells; assay type: in vivo, mouse
Method: The vaccination schedule is highlighted in FIG. 2, panel C. Eight million KPC cells were seeded in a tissue culture dish. After cellular attachment, IRIN (300 µM or OX (500 µM were added for 24 h. Cells were collected and washed before resuspended in 0.8 mL cold PBS. For vaccination, each mouse received subcutaneous (SC) injection of a 100 µL suspension of chemo-treated cells in the right flank. Control animals received SC injection with 0.1 mL PBS. The vaccination was repeated after 7 days. Fourteen days after the 1st injection, the animals received SC injection of normal KPC cells (1 million cells in 0.1 mL PBS) in the contralateral (left) flank. Tumor growth was measured by a digital caliper every 2-3 days, and the tumor volume calculated according to the formula: length × width^2 /2. Animals were sacrificed on day 26 and the tumors were collected, weighed and fixed in 10% formalin, followed by paraffin embedding and sectioning to derive to 4 µm thick slices for IHC analysis. Primary antibodies to CD8 (#14-0808-82) and FoxP3 (#13-5773-82) were purchased from ThermoFisher. IHC staining was performed in the UCLA Translational Pathology Core Laboratory (TPCL). The slides were scanned and images assessed by using Aperio ImageScope software (Leica).

orthotopic KPC tumor = assay: Efficacy and immune parameters (IVIS, IHC) in orthotopic KPC tumor model; assay type: in vivo, mouse
Method: Panels B and C) IHC analysis to determine CRT (panel B) and LC3B (panel C) expression at the orthotopic tumor site. Imaging intensity was quantitatively expressed as fold increase that was normalized to the saline group. Representative IHC images are shown on the right. Bar is 50 µm. Panel D) Quantitative assessment of HMGB 1 release. The IHC images were analyzed by Aperio ImageScope software to determine protein released from the damaged nuclei, as described in FIG. 22. Data are expressed as mean ± SEM, n=3. *, p<0.05; **, p<0.01; ***, p<0.001 (1-way ANOVA followed by a Tukey’s test).
Additional IHC analysis was undertaken using the tumor samples collected in FIG. 5, panel A. Quantitative assessment of: Panel A) the CD8^+/ FoxP3^+ cell ratio; Panel B), perforin; Panel C) granzyme B; Panel D) IFN-γ production; and Panel E) PD-L1 expression. Representative IHC images appear in FIG. 18, panels A-C. Data are expressed as mean ± SEM, n=3. *, p<0.05; **, p<0.01; ***, p<0.001 (1-way ANOVA followed by a Tukey’s test).
Tumor-bearing mice received IV injection to deliver an IRIN dose of 40 mg/kg (free IRIN or IRIN silicasome) per injection every 3 days for a total of 3 administrations. Control animals received saline only. Animals were sacrificed 72 h after the last injection. To confirm the impact on tumor growth, ex vivo bioluminescence imaging was performed to assess image intensity at the primary and metastatic tumor sites. Primary tumors were fixed in 10% formalin, followed by paraffin embedding and sectioning to provide 4 µm slices for IHC analysis in the UCLA Translational Pathology Core Laboratory (TPCL). The slides were scanned and images were assessed by using Aperio ImageScope software (Leica). Primary antibodies to CD8 (#14-0808-82) and FoxP3 (#13-5773-82) were purchased from ThermoFisher; CRT (ab2907), while antibodies to HMGB1 (ab18256), granzyme B (ab4059), perforin (ab16074) and IFN-γ (ab9657) were purchased from Abcam. The antibody to LC-3 (#0231-100/LC3-5F10) was purchased from Nanotools, while the antibody to PD-L1 (#64988) was purchased from Cell Signaling Technology.

[1] = pKa and % protonated drug (Henderson-Hasselbalch equation); assay type: physicochemical
Method: FIG. 9, panels A-D, illustrates a dose- and time-dependent study on IRIN-induced lysosomal alkalization effect in KPC cells. Panel A) Dose-dependence. KPC cells were treated with indicated free IRIN dose for 24 hours, followed by DND 99 and Hoechst dye co-staining, similar to FIG. 1, panel C. We were able to discern a major signal drop at 20 µM. IRIN accumulation in the KPC cells is indicated by white arrows. Panel B) Time-dependence. KPC cells were treated using 300 µM free IRIN for indicated time period, followed by DND 99/Hoechst co-staining, similar to panel A. We were able to observe a major DND 99 signal drop as early as 1 h post incubation. Quantification of DND 99 fluorescence intensity in panels A and B higher presented in FIG. 1, panel D. Panel C) Similar to the experiment described in FIG. 1, panel C, KPC cells were exposed to IRIN (300 µM) or chloroquine (CQ, 32 µM) for 24 h. The disappearance of the red fluorescence staining in the acidifying organellar environment in IRIN- and CQ-treated cells is as a result of the alkalization effect of these weak-base molecules. Bars are 10 µm. Panel D) The Henderson-Hasselbalch (H—H) equation allows calculation of % protonated drug at different pH values. Although 83.3% of IRIN molecules are protonated at pH 7.4, the equilibrium shifts to ~99% of the molecules at a lysosomal relevant pH ~4.5-5.5. […]

KPC cells = assay: CRT expression (flow cytometry), HMGB1 release (ELISA) and ATP release; assay type: cell-based, mouse
Method: 7.5×10^4 KPC cells were seeded into 24-well plates. After cell attachment, KPC cells were treated with IRIN (300 µM), OX (500 µM), DOX (20 µM or PTX (12 µM for 24 h. The cell culture media were collected in 1.5 mL tube and spun down (2,000 rpm for 5 min) to collect the supernatants for HMGB1 detection by an ELISA kit (Catalog# ST51011, IBL International GmbH). Surface CRT expression was measured by flow cytometry in the same experiment, as previously described. ^[27] Briefly, the loosely attached cells were combined with trypsin-treated adhered cells. The cells were washed in cold PBS and then stained with a primary anti-CRT antibody (Abcam, ab2907, 1: 140) in 200 µL BD staining buffer for 0.5 h on ice. The cells were washed in cold PBS and stained with an Alexa Fluor® 680-conjugated secondary antibody (LifeScience Technologies #A21244) for 30 min on ice. After washing in cold PBS, the cells were assessed in a LSRII flow cytometer (BD Biosciences).

## CCc1c2c(nc3ccc(OC(=O)N4CCC(N5CCCCC5)CC4)cc13)-c1cc3c(c(=O)n1C2)COC(=O)[C@]3(O)CC [IRIN, Irinotecan hydrochloride trihydrate]
KPC tumor; KPC cells treated with 300 µM IRIN or 500 µM OX, p <0.05
  growth of tumor on the opposite flank vs PBS control: improved the shrinkage of the tumor on the opposite flank significantly
KPC tumor; day 26
  tumor disappearance at harvesting: total tumor disappearance in one IRIN-treated animal
KPC tumor; harvested tumors, day 26
  CD8+ staining number (IHC): no significant increase
  CD8+/Treg cells ratio (IHC): significantly (p <0.01) increased
  FoxP3+ expression (IHC): significantly (p<0.01) decreased
Orthotopic KPC tumor; 40 mg/kg IV on days 8, 11, 14, sacrifice day 17
  tumor size by bioluminescence intensity (IVIS) vs saline: not statistically significant
Orthotopic KPC tumor; 40 mg/kg IV x3
  IFN-γ production in the TME (IHC): significant increase
  LC3B staining intensity at tumor site (IHC): significantly increased staining intensity
[1]; lysosomal relevant pH ~4.5-5.5
  % of molecules protonated: ~ 99%
[1]; pH 7.4
  % of molecules protonated: 83.3%
KPC cells
  ATP release: could not demonstrate an increase in ATP release
KPC cells; IRIN 300 µM, 24 h
  CRT expression and HMGB1 release: strong inducer of both responses
